Values of other authors as cited in publication PMC6931124, “NPY1R-targeted peptide-mediated delivery of a dual PPARα/γ agonist to adipocytes enhances adipogenesis and prevents diabetes progression” (Molecular Metabolism, 2019).

Tested on: 12-week-old db/db mice
Details: ref [100], cited from earlier work
Excerpt: In contradiction to previous tesa in vivo studies, no major improvements in hyperglycemia (serum HbA1C) and serum insulin levels were detected in the treated mice compared to the untreated animals. […] No major changes in the total serum glucose occurred and the insulin levels remained unchanged as the mice adapted to the amount of glucose in their blood. An additional ...

COc1ccc(OC(=O)N(CC(=O)O)Cc2ccc(OCCc3nc(-c4ccccc4)oc3C)cc2)cc1 [muraglitazar]
control of glucose and insulin levels, 2–4 weeks (2–4 weeks): treatment for 2–4 weeks did
control of glucose and insulin levels, one week (one week): did not lead to significant effects
